Data taken from patent US8901118B2, “Compounds and methods for kinase modulation, and indications therefor” (Plexxikon Inc., priority 2010, dated 2014).

The molecules below were run against T1, Flt-3 kinase (Homo sapiens, UniProt P36888) (assay: Flt-3 kinase biochemical activity assay (AlphaScreen)). Settings: 100 μM ATP; read-out: Biochemical Inhibition IC50 Flt3.
T1 sequence (P36888 27-993): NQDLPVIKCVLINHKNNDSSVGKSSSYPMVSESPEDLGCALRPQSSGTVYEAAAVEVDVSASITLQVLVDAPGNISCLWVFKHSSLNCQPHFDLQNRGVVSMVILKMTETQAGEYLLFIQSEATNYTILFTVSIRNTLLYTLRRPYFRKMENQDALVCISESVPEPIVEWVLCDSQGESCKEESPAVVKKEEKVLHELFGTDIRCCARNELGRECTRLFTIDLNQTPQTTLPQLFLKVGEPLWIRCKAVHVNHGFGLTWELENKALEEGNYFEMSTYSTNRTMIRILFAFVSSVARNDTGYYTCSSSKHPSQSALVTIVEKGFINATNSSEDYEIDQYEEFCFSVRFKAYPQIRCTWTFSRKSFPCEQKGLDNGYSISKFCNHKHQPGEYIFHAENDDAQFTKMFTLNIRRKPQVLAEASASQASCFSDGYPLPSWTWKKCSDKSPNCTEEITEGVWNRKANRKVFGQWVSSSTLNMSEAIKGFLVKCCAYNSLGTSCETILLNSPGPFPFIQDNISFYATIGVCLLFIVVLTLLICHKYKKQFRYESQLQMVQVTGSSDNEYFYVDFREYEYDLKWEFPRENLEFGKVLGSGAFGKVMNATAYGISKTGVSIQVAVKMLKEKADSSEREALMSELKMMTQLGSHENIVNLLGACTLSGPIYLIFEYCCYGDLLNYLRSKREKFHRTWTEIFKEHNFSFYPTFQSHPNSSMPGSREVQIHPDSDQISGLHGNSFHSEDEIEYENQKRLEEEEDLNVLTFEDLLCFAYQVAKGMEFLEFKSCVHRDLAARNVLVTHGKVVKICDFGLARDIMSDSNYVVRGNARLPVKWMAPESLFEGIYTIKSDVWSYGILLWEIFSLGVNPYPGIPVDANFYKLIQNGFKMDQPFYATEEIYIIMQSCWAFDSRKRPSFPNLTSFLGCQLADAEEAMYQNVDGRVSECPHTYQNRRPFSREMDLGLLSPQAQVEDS
Method: In one assay the biochemical activity IC50 values are determined with respect to inhibition of Flt-3 kinase activity, where inhibition of phosphorylation of a peptide substrate is measured as a function of compound concentration. Compounds to be tested, dissolved in DMSO (1 μL), are added to a white 384-well plate (Costar #3705). Working stocks of Flt-3 kinase (Invitrogen), biotin-(E4Y)10 substrate (Upstate Biotech, Cat#12-440), and ATP (Sigma, Cat#A-3377) are prepared in 25 mM Hepes pH 7.5, 5 mM MgCl2, 5 mM MnCl2, 1 mM DTT, and 0.01% Tween-20. All components are added to the 384-well plate for a final concentration of 1 ng/well Flt-3, 30 nM biotin-(E4Y)10 and 100 μM ATP in a volume of 20 μL. Each sample is at 5% DMSO. The plate is then incubated for 1 hour at room temperature. Just before use, working stocks of donor and acceptor beads from the AlphaScreen PY20 Detection Kit (PerkinElmer, Cat#676601M) are prepared in 25 mM Hepes pH 7.5, pH 7.4, 100 mM EDTA. 0.3% BSA. To stop the reaction, the plate is uncovered in the dark and 5 μL of Donor Beads solution (Streptavidin beads) is added to each well. The plate is incubated at room temperature for 20 minutes. Five microliters of Acceptor Beads solution (PY20 coated beads) are then added to each well. The final concentration of each bead is 10 μg/mL. The plates are incubated at room temperature for 60 minutes. Fluorescence signal is recorded on the Envision reader. Phosphorylated substrate results in binding of the PY20 antibody and association of the donor and acceptor beads such that signal correlates with kinase activity. The signal vs. compound concentration is used to determine the IC50.

IC50 [nM] | SMILES
< 1000 | CCn1cc(Nc2ccc(Cc3c[nH]c4ncnc(OC)c34)c(F)n2)cn1 [Compound P-4011, (1-Ethyl-1H-pyrazol-4-yl)-[6-fluoro-5-(4-methoxy-7H-pyrrolo[2,3-d]pyrimidin-5-ylmethyl)-pyridin-2-yl]-amine]
< 10 | COc1ccc(Nc2ncc(Cc3c[nH]c4ncc(C)cc34)cn2)cc1 [Compound P-3021, (4-Methoxy-phenyl)-[5-(5-methyl-1H-pyrrolo[2,3-b]pyridin-3-ylmethyl)-pyrimidin-2-yl]-amine]
< 10 | COc1ccc(Nc2ncc(Cc3c[nH]c4ncc(C)cc34)cn2)cn1 [Compound P-3020, (6-Methoxy-pyridin-3-yl)-[5-(5-methyl-1H-pyrrolo[2,3-b]pyridin-3-ylmethyl)-pyrimidin-2-yl]-amine]
< 100 | COc1ccc(Nc2ccc(C(=O)c3c[nH]c4ncnc(C5CC5)c34)c(F)n2)cn1 [Compound P-4022, (4-cyclopropyl-7H-pyrrolo[2,3-d]pyrimidin-5-yl)-[2-fluoro-6-(6-methoxy-pyridin-3-ylamino)-pyridin-3-yl]-methanone]
< 100 | CCOc1ncnc2[nH]cc(Cc3ccc(Nc4ccc(Br)nc4)nc3F)c12 [Compound P-4020, (6-Bromo-pyridin-3-yl)-[5-(4-ethoxy-7H-pyrrolo[2,3-d]pyrimidin-5-ylmethyl)-6-fluoro-pyridin-2-yl]-amine]
< 1000 | Cc1ccc(Nc2ccc(Cc3c[nH]c4ncc(Cl)cc34)c(F)n2)cn1 [Compound P-3042, [5-(5-Chloro-1H-pyrrolo[2,3-b]pyridin-3-ylmethyl)-6-fluoro-pyridin-2-yl]-(6-methyl-pyridin-3-yl)-amine]
< 100 | Cc1ccc(Nc2ccc(C(=O)c3c[nH]c4ncnc(C5CC5)c34)c(F)n2)cn1 [Compound P-4031, (4-Cyclopropyl-7H-pyrrolo[2,3-d]pyrimidin-5-yl)-[2-fluoro-6-(6-methyl-pyridin-3-ylamino)-pyridin-3-yl]-methanone]
< 10 | Cc1cnc2[nH]cc(Cc3cnc(Nc4ccc(C(F)(F)F)nc4)nc3)c2c1 [Compound P-3018, [5-(5-Methyl-1H-pyrrolo[2,3-b]pyridin-3-ylmethyl)-pyrimidin-2-yl]-(6-trifluoromethyl-pyridin-3-yl)-amine]
< 10 | CCCOc1ccc(Nc2ncc(Cc3c[nH]c4ncc(C)cc34)cn2)cc1 [Compound P-3024, [5-(5-Methyl-1H-pyrrolo[2,3-b]pyridin-3-ylmethyl)-pyrimidin-2-yl]-(4-propoxy-phenyl)-amine]
< 100 | CCn1ccc(Nc2ncc(Cc3c[nH]c4ncc(C)cc34)cn2)n1 [Compound P-3035, (1-Ethyl-1H-pyrazol-3-yl)-[5-(5-methyl-1H-pyrrolo[2,3-b]pyridin-3-ylmethyl)-pyrimidin-2-yl]-amine]
< 100 | CCOc1ccc(Nc2ccc(Cc3c[nH]c4ncc(C)cc34)c(F)n2)cn1 [Compound P-3039, (6-ethoxy-pyridin-3-yl)-[6-fluoro-5-(5-methyl-1H-pyrrolo[2,3-b]pyridin-3-ylmethyl)-pyridin-2-yl]-amine]
< 100 | CCOc1ccc(Nc2ccc(Cc3c[nH]c4ncnc(OCCOC)c34)c(F)n2)cn1 [Compound P-4008, (6-Ethoxy-pyridin-3-yl)-{6-fluoro-5-[4-(2-methoxy-ethoxy)-7H-pyrrolo[2,3-d]pyrimidin-5-ylmethyl]-pyridin-2-yl}-amine]
< 1000 | Cc1ccc(Nc2ccc(C(=O)c3c[nH]c4ncc(Cl)cc34)c(F)n2)cn1 [Compound P-3044, (5-Chloro-1H-pyrrolo[2,3-b]pyridin-3-yl)-[2-fluoro-6-(6-methyl-pyridin-3-ylamino)-pyridin-3-yl]-methanone]
< 100 | COc1ccc(Nc2ccc(C(=O)c3c[nH]c4ncc(C)cc34)c(F)n2)cn1 [Compound P-3040, [2-Fluoro-6-(6-methoxy-pyridin-3-ylamino)-pyridin-3-yl]-(5-methyl-1H-pyrrolo[2,3-b]pyridin-3-yl)-methanone]
< 10 | CCc1ccc(Nc2ccc(C(=O)c3c[nH]c4ncnc(C5CC5)c34)c(F)n2)cn1 [Compound P-4029, (4-Cyclopropyl-7H-pyrrolo[2,3-d]pyrimidin-5-yl)-[6-(6-ethyl-pyridin-3-ylamino)-2-fluoro-pyridin-3-yl]-methanone]
< 1000 | COc1ccc(Nc2ccc(Cc3c[nH]c4ncc(C)cc34)c(F)n2)cn1 [Compound P-3019, [6-fluoro-5-(5-methyl-1H-pyrrolo[2,3-b]pyridin-3-ylmethyl)-pyridin-2-yl]-(6-methoxy-pyridin-3-yl)-amine]
> 1000 | COCCOc1ncnc2[nH]cc(Cc3ccc(Nc4ccc(C)nc4)nc3F)c12 [Compound P-4015, {6-Fluoro-5-[4-(2-methoxy-ethoxy)-7H-pyrrolo[2,3-d]pyrimidin-5-ylmethyl]-pyridin-2-yl}-(6-methyl-pyridin-3-yl)-amine]
> 1000 | CCn1cc(Nc2ccc(Cc3c[nH]c4ncnc(C)c34)c(F)n2)cn1 [Compound P-4013, (1-Ethyl-1H-pyrazol-4-yl)-[6-fluoro-5-(4-methyl-7H-pyrrolo[2,3-d]pyrimidin-5-ylmethyl)-pyridin-2-yl]-amine]
> 1000 | CCn1cc(Nc2ccc(Cc3c[nH]c4ncnc(C5CC5)c34)c(F)n2)cn1 [Compound P-4036, [5-(4-Cyclopropyl-7H-pyrrolo[2,3-d]pyrimidin-5-ylmethyl)-6-fluoro-pyridin-2-yl]-(1-ethyl-1H-pyrazol-4-yl)-amine]
< 100 | CCn1cc(Nc2ncc(Cc3c[nH]c4ncc(C)cc34)cn2)cn1 [Compound P-3036, (1-Ethyl-1H-pyrazol-4-yl)-[5-(5-methyl-1H-pyrrolo[2,3-b]pyridin-3-ylmethyl)-pyrimidin-2-yl]-amine]
< 100 | CCOc1ccc(Nc2ccc(Cc3c[nH]c4ncnc(C5CC5)c34)c(F)n2)cn1 [Compound P-4026, [5-(4-Cyclopropyl-7H-pyrrolo[2,3-d]pyrimidin-5-ylmethyl)-6-fluoro-pyridin-2-yl]-(6-ethoxy-pyridin-3-yl)-amine]
< 1000 | CCn1cc(Nc2ccc(C(=O)c3c[nH]c4ncnc(C5CC5)c34)c(F)n2)cn1 [Compound P-4037, (4-Cyclopropyl-7H-pyrrolo[2,3-d]pyrimidin-5-yl)-[6-(1-ethyl-1H-pyrazol-4-ylamino)-2-fluoro-pyridin-3-yl]-methanone]
< 100 | Fc1cccc(Nc2ncc(Cc3c[nH]c4ncc(Cl)cc34)cn2)c1 [Compound P-3017, [5-(5-Chloro-1H-pyrrolo[2,3-b]pyridin-3-ylmethyl)-pyrimidin-2-yl]-(3-fluoro-phenyl)-amine]
< 1000 | Cc1cnc2[nH]cc(Cc3ccc(Nc4ccc(C)nc4)nc3F)c2c1 [Compound P-3041, [6-Fluoro-5-(5-methyl-1H-pyrrolo[2,3-b]pyridin-3-ylmethyl)-pyridin-2-yl]-(6-methyl-pyridin-3-yl)-amine]
> 1000 | CCOc1ncnc2[nH]cc(Cc3ccc(Nc4cccnc4)nc3F)c12 [Compound P-4021, [5-(4-Ethoxy-7H-pyrrolo[2,3-d]pyrimidin-5-ylmethyl)-6-fluoro-pyridin-2-yl]-pyridin-3-yl-amine]
< 100 | CCc1ccc(Nc2ccc(Cc3c[nH]c4ncnc(OC)c34)c(F)n2)cn1 [Compound P-4007, (6-Ethyl-pyridin-3-yl)-[6-fluoro-5-(4-methoxy-7H-pyrrolo[2,3-d]pyrimidin-5-ylmethyl)-pyridin-2-yl]-amine]
